What all share (format): functional
Assay [1] concerns Streptococcus pneumoniae. The assay can be described thus: Antimicrobial activity against Streptococcus pneumoniae WB4 by broth macrodilution method.
Assay [2] deals with Streptococcus pneumoniae. The assay can be described thus: Antimicrobial activity in Streptococcus pneumoniae WB4 infected New Zealand white rabbit meningitis model assessed as decrease in viable cells in CSF at 15 mg/kg after 8 hrs.
For assay [3], the system named is Streptococcus pneumoniae. The assay can be described thus: Antimicrobial activity in Streptococcus pneumoniae WB4 infected New Zealand white rabbit meningitis model assessed as increase in [3H]choline release in CSF at 15 mg/kg after 4 hrs.
Assay [4] relates to Streptococcus pneumoniae. The assay can be described thus: Antimicrobial activity in Streptococcus pneumoniae WB4 infected New Zealand white rabbit meningitis model assessed as decrease in viable cells in CSF at 125 mg/kg after 8 hrs.
The test system of assay [5] is Streptococcus pneumoniae. The assay can be described thus: Antimicrobial activity in Streptococcus pneumoniae WB4 infected New Zealand white rabbit meningitis model assessed as increase in [3H]choline release in CSF at 125 mg/kg after 4 to 6 hrs.

Values after ≈ are worked out from the molar mass of the structure shown.

`CN[C@H](CC(C)C)C(=O)N[C@H]1C(=O)N[C@@H](CC(N)=O)C(=O)N[C@H]2C(=O)N[C@H]3C(=O)N[C@H](C(=O)N[C@H](C(=O)O)c4cc(O)cc(O)c4-c4cc3ccc4O)[C@H](O)c3ccc(c(Cl)c3)Oc3cc2cc(c3O[C@@H]2O[C@H](CO)[C@@H](O)[C@H](O)[C@H]2O[C@H]2C[C@](C)(N)[C@H](O)[C@H](C)O2)Oc2ccc(cc2Cl)[C@H]1O` [VANCOMYCIN] gave a minimal inhibitory concentration (MIC) in the assay on Streptococcus pneumoniae [1] of 0.12 µg/mL (≈ 0.0828 µM).

In the assay with Streptococcus pneumoniae [1], `CCCCCCCCCC(=O)N[C@@H](Cc1c[nH]c2ccccc12)C(=O)N[C@H](CC(N)=O)C(=O)N[C@@H](CC(=O)O)C(=O)N[C@@H]1C(=O)NCC(=O)N[C@@H](CCCN)C(=O)N[C@@H](CC(=O)O)C(=O)N[C@H](C)C(=O)N[C@@H](CC(=O)O)C(=O)NCC(=O)N[C@H](CO)C(=O)N[C@@H]([C@H](C)CC(=O)O)C(=O)N[C@@H](CC(=O)c2ccccc2N)C(=O)O[C@@H]1C` came in with an MIC of 0.06 µg/mL (≈ 0.037 µM). Also, in the assay on Streptococcus pneumoniae [2], the log10CFU/ml is -6.64. Also, in the assay on Streptococcus pneumoniae [3], the Activity stood at 250 cpm/min.

As to `CO/N=C(\C(=O)NC1C(=O)N2C(C(=O)O)=C(COC(C)=O)CS[C@H]12)c1csc(N)n1` (single isomer, unassigned) [CEFOTAXIME], the minimal inhibitory concentration (MIC) in the assay on Streptococcus pneumoniae [1] came out at 1 µg/mL (≈ 2.2 µM).

For the molecule `CO/N=C(\C(=O)N[C@@H]1C(=O)N2C(C(=O)O)=C(CSc3nc(=O)c(O)nn3C)CS[C@H]12)c1csc(N)n1` [CEFTRIAXONE], the MIC in the assay with Streptococcus pneumoniae [1] was 0.5 µg/mL (≈ 0.902 µM). Also, the log10CFU/ml in the assay on Streptococcus pneumoniae [4] is -4.04. In addition, in the assay with Streptococcus pneumoniae [5], the Activity amounted to 2500 cpm/min.

With `COc1c(N2C[C@@H]3CCCN[C@@H]3C2)c(F)cc2c(=O)c(C(=O)O)cn(C3CC3)c12` [MOXIFLOXACIN], it took 0.12 µg/mL (≈ 0.299 µM) to inhibit growth in the assay with Streptococcus pneumoniae [1] (MIC).

The term MIC denotes the smallest concentration in the dilution series that meets the test's criterion for growth inhibition. A high value points to a need for much substance.

Values taken from ChEMBL document CHEMBL1143816, “Daptomycin produces an enhanced bactericidal activity compared to ceftriaxone, measured by [3H]choline release in the cerebrospinal fluid, in experimental meningitis due to a penicillin-resistant pneumococcal strain without lysing its cell wall” (2007).
